Assay results as given in patent US20240389528A1, “PERFORMANCE GAIN IN ALS INHIBITOR HERBICIDE TOLERANT BETA VULGARIS PLANTS BY COMBINATION OF BEST FITTING ALS LARGE AND SMALL SUBUNITS” (BAYER AKTIENGESELLSCHAFT, priority 2021, published 2024).

Tested on: B. vulgaris plants comprising the BvALS_W569L allele
Assay: Sensitivity of Beta vulgaris plants to ALS inhibitor herbicide (BvALS_W569L allele vs wild type allele)
Format: in vivo

COc1cc(OC)nc(NC(=O)NS(=O)(=O)c2cc(NC=O)ccc2C(=O)N(C)C)n1 [foramsulfuron]
times less sensitive to the ALS inhibitor herbicide compared to B. vulgaris plants comprising a BvALS wild type allele: at least 2000 times
